Where “and” joins values, the source holds several entries; their conditions need not be identical. Identical values can stand only once. Like-named read-outs stand apart in the source and are kept apart here. Bounds are passed on as bounds.

Results on eight molecules are retold here after patent US8513271B2, “Pyrimidine compounds as delta opioid receptor modulators” (Janssen Pharmaceutica, NV, priority 2009, dated 2013).

Experiment [1] concerns the target T1, delta opioid receptor (Rattus norvegicus, UniProt P33533).
T1 construct: the forebrains were homogenized in Tris buffer in a Teflon®-glass homogenizer; from tissue; host or cells: forebrain of male Wistar rats, particulate (membrane) preparation
Kind of experiment: Rat brain delta opioid receptor binding assay. The settings on record: rat forebrain, [3H]naltrindole ligand.

Experiment [2] has as its system CFA-induced paw radiant heat hypersensitivity. Description: CFA-induced paw radiant heat hypersensitivity. The format is in vivo, rat. Conditions: for inhibition in vivo at 100 mg/kg: Rattus norvegicus; for maximum % reversal: time not printed (last time point 100 min).
A further experiment concerns the target T2, mu opioid receptor (Rattus norvegicus, UniProt P33535).
T2 construct: the forebrains were homogenized in Tris buffer in a Teflon®-glass homogenizer; from tissue; host or cells: forebrain of male Wistar rats, particulate (membrane) preparation
Kind of experiment: Rat brain mu opioid receptor binding assay. Conditions: rat forebrain, [3H]DAMGO ligand.

Experiment [3] addresses hMOR (mu opioid receptor) (Homo sapiens, UniProt P35372). Kind of experiment: [35S]GTPγS binding assays in CHO-hMOR cell membranes (mu opioid functional assay). The settings on record: for inhibition at 10 µM: read-out: GTPγS μ-opioid receptor % Inh @10 μM. It counts as biochemical. A general note: Binding of GTPγS marks nucleotide exchange on a G protein.
In experiment [4] the target is T3, delta opioid receptor (Mus musculus, UniProt P32300).
T3 construct: NG108-15 cell membranes were purchased from Applied Cell Sciences (Rockville, Md.); host or cells: NG108-15 cell membranes
Kind of experiment: NG108-15, 24-well delta opioid receptor binding assay.

The target of experiment [5] is T3, delta opioid receptor. Description: [35S]GTPγS binding assay in NG108-15 cell membranes (delta opioid functional assay), 200 nM screen. The format is biochemical. The settings on record: for EC50: GTPγS δ-opioid receptor EC50 (μM), averages if tested more than once; for EC50 / GTPγS δ-opioid receptor Rel Efficacy: NG108-15 cell membranes; for GTPγS δ-opioid receptor Rel Efficacy: relative efficacy from dose response.

The test system of experiment [6] is acetic acid-induced abdominal stretches. Kind of experiment: Mouse graded abdominal irritant test (GrAIT). It counts as in vivo. The settings on record: 10% Solutol, 30 min pretreatment.
[7] abbreviates: δ-binding (Naltrindole ligand) Ki.
Where [8] appears, read: po, 1 h, read-out: maximum % reversal @ time (min), rat, 100 mg/kg p.o., 0.5% HPMC, @ 60 min.
Where [9] appears, read: po, 3 h, read-out: maximum % reversal @ time (min), rat, 100 mg/kg p.o., 0.5% HPMC, @ 180 min, Algos (contract lab) study.

T1 sequence (P33533 whole entry): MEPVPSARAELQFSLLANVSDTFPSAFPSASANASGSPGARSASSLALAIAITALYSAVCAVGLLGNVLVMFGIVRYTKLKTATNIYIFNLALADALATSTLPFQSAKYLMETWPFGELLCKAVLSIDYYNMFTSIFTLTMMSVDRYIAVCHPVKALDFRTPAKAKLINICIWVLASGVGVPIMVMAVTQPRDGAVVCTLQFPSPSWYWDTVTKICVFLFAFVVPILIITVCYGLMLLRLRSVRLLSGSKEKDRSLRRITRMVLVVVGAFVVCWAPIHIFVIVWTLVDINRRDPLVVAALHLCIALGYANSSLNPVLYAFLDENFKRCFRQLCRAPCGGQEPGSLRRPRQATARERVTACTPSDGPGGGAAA
T2 sequence (P33535 whole entry): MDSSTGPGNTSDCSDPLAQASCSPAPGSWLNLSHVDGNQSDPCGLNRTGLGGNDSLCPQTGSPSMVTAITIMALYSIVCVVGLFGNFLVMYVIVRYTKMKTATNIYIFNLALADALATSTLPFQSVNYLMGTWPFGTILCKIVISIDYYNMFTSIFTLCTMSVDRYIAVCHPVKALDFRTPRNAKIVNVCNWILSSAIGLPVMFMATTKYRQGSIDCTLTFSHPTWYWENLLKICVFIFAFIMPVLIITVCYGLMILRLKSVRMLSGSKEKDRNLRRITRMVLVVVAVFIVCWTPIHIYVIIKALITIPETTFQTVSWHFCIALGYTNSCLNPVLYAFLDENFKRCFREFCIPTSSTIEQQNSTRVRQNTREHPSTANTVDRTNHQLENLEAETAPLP
Sequence of hMOR (mu opioid receptor) (P35372 whole entry, looked up): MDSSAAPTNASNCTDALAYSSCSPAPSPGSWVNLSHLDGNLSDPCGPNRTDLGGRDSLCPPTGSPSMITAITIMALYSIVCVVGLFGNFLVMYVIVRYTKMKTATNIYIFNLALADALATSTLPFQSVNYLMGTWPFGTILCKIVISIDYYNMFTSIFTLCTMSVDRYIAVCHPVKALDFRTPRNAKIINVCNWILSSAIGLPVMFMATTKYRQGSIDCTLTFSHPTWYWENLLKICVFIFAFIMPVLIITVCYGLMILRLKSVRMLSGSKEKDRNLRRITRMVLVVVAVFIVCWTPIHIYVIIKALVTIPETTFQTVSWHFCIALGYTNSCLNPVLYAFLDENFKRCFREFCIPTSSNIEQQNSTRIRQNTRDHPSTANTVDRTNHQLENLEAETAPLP
T3 sequence (P32300 whole entry): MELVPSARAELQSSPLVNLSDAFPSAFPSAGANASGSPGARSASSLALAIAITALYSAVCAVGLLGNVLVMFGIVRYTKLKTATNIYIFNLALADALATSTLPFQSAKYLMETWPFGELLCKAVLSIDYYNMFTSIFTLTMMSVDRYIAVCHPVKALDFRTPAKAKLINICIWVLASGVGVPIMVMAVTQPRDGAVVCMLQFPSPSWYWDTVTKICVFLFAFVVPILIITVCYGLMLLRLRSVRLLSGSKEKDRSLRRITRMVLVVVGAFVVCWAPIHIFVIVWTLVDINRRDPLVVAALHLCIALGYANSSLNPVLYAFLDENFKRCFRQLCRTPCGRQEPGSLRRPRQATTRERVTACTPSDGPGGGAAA

For the molecule `COc1ccc(Oc2nc(-c3cncc(C#N)c3)ncc2NC[C@@H]2CCCN2)cc1` [Cpd 69], the Ki at delta opioid receptor [1] (setting [7]) worked out at 4.1 nM; at mu opioid receptor (μ-binding Ki), 196 nM; at delta opioid receptor [4], 0.139 nM. The inhibition in vivo at 100 mg/kg in experiment [2] (setting [8]) turned out to be 10.1%; in experiment [2] (po, 1 h, read-out: maximum % reversal @ time (min), rat, 100 mg/kg p.o., 0.5% HPMC, @ 60 min, Algos (contract lab) study), 55.7%; in experiment [2] (setting [9]), 65.4%. Further, the EC50 was more than 10000 nM in experiment [3] and 0.0085 µM at delta opioid receptor [5]. In experiment [3], the inhibition at 10 µM turned out to be 22.8%. Also, the “GTPγS δ-opioid receptor Rel Efficacy” value on delta opioid receptor [5] is given as 1.004.
On to `COc1ccc(Oc2nc(-c3ccc(OC)nc3)ncc2NC[C@@H]2CCCN2)cc1` [Cpd 22], for which the Ki at delta opioid receptor [1] (setting [7]) stood at 0.909 nM; at mu opioid receptor (read-out: μ-binding Ki), 1100 nM. The “# abdominal stretches (compound)” value in experiment [6] (30 mg/kg s.c.) is 18.6 and 16.0; in experiment [6] (100 mg/kg s.c.), 17.4; in experiment [6] (300 mg/kg s.c.) it was 20.3.
For `COc1ccc(Oc2nc(-c3ccc(F)nc3)ncc2NC[C@@H]2CCCN2)cc1` [Cpd 25], the values for the Ki on delta opioid receptor [1] (setting [7]) and at mu opioid receptor (read-out: μ-binding Ki) were 0.308 nM and 616 nM, respectively. Besides, in experiment [6] (30 mg/kg s.c.), the “# abdominal stretches (compound)” value is given as 12.3.
For `COc1ccc(Oc2nc(-c3cnc4ccccc4c3)ncc2NC[C@@H]2CCCN2)cc1` [Cpd 20] the same measures were 4.93 nM, 146 nM and 19.8.
In the case of `COc1ccc(Oc2nc(-c3cncnc3)ncc2NC[C@@H]2CCCN2)cc1` [Cpd 23], the results for the Ki on delta opioid receptor [1] (read-out: δ-binding (Naltrindole ligand) Ki) and on mu opioid receptor (read-out: μ-binding Ki) were 1.25 nM and 214 nM, respectively. The ED50 in experiment [2] (po, 2 h, rat, p.o., 0.5% HPMC, doses 10, 30, 100, 300 mg/kg, time point 120 min, read-out: ED50) stood at 35.4 mg/kg. Moreover, the “# abdominal stretches (compound)” value in experiment [6] (30 mg/kg s.c.) is on record as 16.7.
Consider `COc1ccc(Oc2nc(-c3cccnc3F)ncc2NC[C@@H]2CCCN2)cc1` [Cpd 24], for which the Ki at delta opioid receptor [1] (setting [7]) came to 1 nM; at mu opioid receptor (read-out: μ-binding Ki), 1060 nM. In experiment [6] (30 mg/kg s.c.), the “# abdominal stretches (compound)” value turned out to be 16.9.
For `COc1ccc(Oc2nc(-c3cccnc3OC)ncc2NC[C@@H]2CCCN2)cc1` [Cpd 26] the same measures were 8 nM, 4050 nM and 16.7.
For `COc1ccc(Oc2nc(-c3cccnc3)ncc2NC[C@@H]2CCCN2)cc1` [Cpd 8], the Ki was found to be 6.19 nM at delta opioid receptor [1] (setting [7]) and 42.8 nM on mu opioid receptor (μ-binding Ki). For the same molecule, the results for the inhibition in vivo at 100 mg/kg in experiment [2] (setting [8]) and in experiment [2] (setting [9]) were 46.5% and 75.1%, respectively. Besides, the maximum % reversal worked out at 49.0% in experiment [2] (rat, 30 mg/kg p.o., 0.5% HPMC) and 64.8% in experiment [2] (rat, 100 mg/kg p.o., 0.5% HPMC). For the same molecule, the inhibition at 10 µM in experiment [3] was 2.48%; on delta opioid receptor [5] (read-out: GTPγS δ-opioid receptor % Inh @10 μM) it was 23.6%. The molecule further registered an EC50 on delta opioid receptor [5] of 0.0681 µM. Besides, the “GTPγS δ-opioid receptor Rel Efficacy” value at delta opioid receptor [5] amounted to 0.848. Moreover, the “# abdominal stretches (compound)” value in experiment [6] (30 mg/kg s.c.) is recorded as 18.9.

The term Ki denotes a dissociation constant, usually derived from enzyme kinetics or from competition with a known ligand. As a reminder, the EC50 is the midpoint of the concentration-response curve. Read a high EC50 as lower potency in that assay. One may read the ED50 as the midpoint of the dose-response relation.
